Laboratory results as given in ChEMBL document CHEMBL1201862, “PubChem BioAssay data set” (2004).
Where a name gives a salt, the structure may show the parent alone. The source made the active and inactive calls.

Legend:
[1] = system: Streptococcus sp. 'group A'; assay: Streptococcus pyogenes SK(-)GAS viability under kanamycin – luminescence, BacTiterGlo, confirmation, counter-screen for streptokinase expression inhibitor project, dose response (AID 1900); type: functional, organism-based
Streptokinase A = target: T1, Streptokinase A (Streptococcus pyogenes serotype M1, UniProt P10520); assay: viability-normalized secreted streptokinase activity reduction – plasminogen activation absorbance, OD405, dose response (AID 1914); type: functional, Streptococcus pyogenes M1 GAS;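 further: secreted streptokinase activity via plasminogen activation per viability signal from cell pellet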
T1 sequence (P10520 whole entry): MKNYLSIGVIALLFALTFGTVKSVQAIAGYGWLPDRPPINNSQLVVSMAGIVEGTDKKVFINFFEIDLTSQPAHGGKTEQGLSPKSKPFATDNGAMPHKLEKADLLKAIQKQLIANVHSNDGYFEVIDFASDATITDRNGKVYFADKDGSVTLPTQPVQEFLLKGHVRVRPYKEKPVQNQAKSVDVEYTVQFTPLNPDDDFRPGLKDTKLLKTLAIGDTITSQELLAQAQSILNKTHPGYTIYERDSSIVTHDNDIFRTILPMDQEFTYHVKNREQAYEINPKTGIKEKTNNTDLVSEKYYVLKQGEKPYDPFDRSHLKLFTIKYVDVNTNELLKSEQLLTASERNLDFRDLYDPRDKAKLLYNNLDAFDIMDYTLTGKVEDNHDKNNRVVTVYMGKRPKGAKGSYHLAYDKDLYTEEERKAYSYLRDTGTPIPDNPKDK

Streptococcus = assay: GAS UMAA2166 growth inhibition – luminescence, BacTiterGlo, counter-screen for streptokinase expression inhibitor project, dose response (AID 1915); type: functional, organism-based;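 further: potency for reduction of bacterial viability or growth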
[2] = target: T2, DNA repair protein RAD52 homolog (Homo sapiens, UniProt P43351); type: functional, biochemical
T2 sequence (P43351 whole entry): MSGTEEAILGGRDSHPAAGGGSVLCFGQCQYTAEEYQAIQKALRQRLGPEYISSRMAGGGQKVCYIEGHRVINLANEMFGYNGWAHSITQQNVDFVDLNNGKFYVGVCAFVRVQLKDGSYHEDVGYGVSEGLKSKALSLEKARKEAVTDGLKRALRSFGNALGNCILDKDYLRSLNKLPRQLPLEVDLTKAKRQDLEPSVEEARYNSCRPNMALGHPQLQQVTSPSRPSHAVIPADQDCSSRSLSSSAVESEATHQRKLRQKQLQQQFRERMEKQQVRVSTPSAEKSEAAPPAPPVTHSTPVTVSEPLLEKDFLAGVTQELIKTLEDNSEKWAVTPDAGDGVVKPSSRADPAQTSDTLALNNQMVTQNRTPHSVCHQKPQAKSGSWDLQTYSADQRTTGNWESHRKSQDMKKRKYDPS

Protein skinhead-1 = target: T3, Protein skinhead-1 (Caenorhabditis elegans, UniProt P34707); type: functional
T3 sequence (P34707 whole entry): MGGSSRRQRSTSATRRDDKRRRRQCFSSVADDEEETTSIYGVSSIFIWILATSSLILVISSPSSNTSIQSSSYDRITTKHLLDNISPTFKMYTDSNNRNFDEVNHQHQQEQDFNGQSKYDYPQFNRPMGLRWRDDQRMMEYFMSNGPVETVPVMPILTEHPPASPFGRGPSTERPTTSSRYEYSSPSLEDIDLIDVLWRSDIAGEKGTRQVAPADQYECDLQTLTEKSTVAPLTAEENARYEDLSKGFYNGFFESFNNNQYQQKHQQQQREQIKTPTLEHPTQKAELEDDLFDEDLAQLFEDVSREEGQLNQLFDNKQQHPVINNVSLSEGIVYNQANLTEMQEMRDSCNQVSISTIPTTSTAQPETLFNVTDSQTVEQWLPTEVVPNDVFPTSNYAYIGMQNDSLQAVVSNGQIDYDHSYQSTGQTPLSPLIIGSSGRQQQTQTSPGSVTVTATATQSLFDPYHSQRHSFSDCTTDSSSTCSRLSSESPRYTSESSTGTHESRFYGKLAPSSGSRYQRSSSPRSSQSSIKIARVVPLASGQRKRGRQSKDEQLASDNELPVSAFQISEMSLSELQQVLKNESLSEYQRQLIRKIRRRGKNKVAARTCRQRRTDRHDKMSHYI

[3] = NIH-3T3 fibroblast cytotoxicity, dose response, cytotoxicity control, cell-based, fluorescence, Alamar Blue, secondary assay (AID 2327); type: functional;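 further: NIH-3T3 mouse fibroblasts cultured with fluconazole at 8 µg/mL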
[4] = fluconazole-exposed Candida albicans growth modulators – fluorescence, retest, confirmation (AID 2467); type: functional, cell-based
cells = type: functional
[5] = target: T4, Rac GTPase-activating protein 1 (Homo sapiens, UniProt Q9H0H5); assay: blockers of MgcRacGAP-driven Rac1 GTP hydrolysis – biochemical, ADP Hunter fluorescence, primary and confirmatory, confirmation (AID 624330); type: functional
T4 sequence (Q9H0H5 whole entry): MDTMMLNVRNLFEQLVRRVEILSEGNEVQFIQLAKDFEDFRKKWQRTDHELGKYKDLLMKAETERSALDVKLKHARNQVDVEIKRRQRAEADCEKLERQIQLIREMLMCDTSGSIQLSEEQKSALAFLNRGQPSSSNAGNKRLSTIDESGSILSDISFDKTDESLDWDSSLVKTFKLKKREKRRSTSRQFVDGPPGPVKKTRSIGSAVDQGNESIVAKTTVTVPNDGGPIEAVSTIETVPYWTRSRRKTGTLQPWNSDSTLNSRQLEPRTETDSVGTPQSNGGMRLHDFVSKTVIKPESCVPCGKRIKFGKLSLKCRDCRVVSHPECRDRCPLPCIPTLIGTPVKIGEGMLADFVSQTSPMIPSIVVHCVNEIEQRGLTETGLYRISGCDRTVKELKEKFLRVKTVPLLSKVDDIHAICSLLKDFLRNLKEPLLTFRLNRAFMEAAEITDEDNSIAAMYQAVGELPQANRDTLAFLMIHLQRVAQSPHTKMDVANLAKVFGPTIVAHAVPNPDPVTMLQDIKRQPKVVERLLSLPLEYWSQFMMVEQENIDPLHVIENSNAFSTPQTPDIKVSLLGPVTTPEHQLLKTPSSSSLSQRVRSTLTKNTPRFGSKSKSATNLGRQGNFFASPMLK

Vero = assay: cells; type: functional; conditions: Chlorocebus sabaeus
[6] = target: T5, Corticotropin-releasing factor receptor 2/Corticotropin-releasing factor-binding protein (Homo sapiens, UniProt P24387+Q13324); assay: Dose Response confirmation of uHTS hits for small molecule antagonists of the CRF-binding protein and CRF-R2 receptor complex.; type: functional; conditions: read-out: IC50_Mean
T5 sequence (Q13324 whole entry): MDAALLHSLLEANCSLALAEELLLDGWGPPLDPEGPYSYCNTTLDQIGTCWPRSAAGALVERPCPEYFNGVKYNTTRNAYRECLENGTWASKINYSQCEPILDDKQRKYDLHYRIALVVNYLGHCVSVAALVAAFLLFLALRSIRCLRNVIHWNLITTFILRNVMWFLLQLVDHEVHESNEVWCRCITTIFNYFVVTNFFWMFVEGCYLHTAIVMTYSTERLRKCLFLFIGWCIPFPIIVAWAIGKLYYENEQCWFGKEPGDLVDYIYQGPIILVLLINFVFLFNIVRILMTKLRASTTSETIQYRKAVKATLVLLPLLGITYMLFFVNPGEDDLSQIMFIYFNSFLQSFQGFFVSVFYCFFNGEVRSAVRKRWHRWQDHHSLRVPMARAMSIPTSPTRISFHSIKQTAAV
T5 sequence (P24387 whole entry): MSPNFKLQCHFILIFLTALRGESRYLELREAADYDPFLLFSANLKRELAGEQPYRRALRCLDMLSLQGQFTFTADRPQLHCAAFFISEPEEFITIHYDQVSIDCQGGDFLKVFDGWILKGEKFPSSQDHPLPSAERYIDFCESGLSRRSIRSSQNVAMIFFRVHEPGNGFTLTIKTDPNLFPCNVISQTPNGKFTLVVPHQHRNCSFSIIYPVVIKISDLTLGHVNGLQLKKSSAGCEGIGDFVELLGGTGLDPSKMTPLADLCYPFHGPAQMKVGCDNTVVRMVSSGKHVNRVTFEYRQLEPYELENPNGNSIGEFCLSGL

[7] = target: T5, Corticotropin-releasing factor receptor 2/Corticotropin-releasing factor-binding protein; assay: activators of CRF receptor 2 with binding protein – uHTS hits, confirmation (AID 602473); type: functional; conditions: read-out: EC50_Mean
[8] = blockers of HIV-1 envelope-mediated cell-cell fusion – cherry-pick, dose response (AID 652057); type: functional, cell-based
Paired box protein Pax-8 = Paired box protein Pax-8 (Homo sapiens, UniProt Q06710); assay: PAX8 transcriptional activity inhibition in RMG-I – RMG-I cells, luciferase, cherry-pick, dose response (AID 687027); type: functional, cell-based;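 further: luciferase reporter driven by Pax8 target thyroperoxidase promoter measured by SteadyGlo luminescence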
Chain of Paired box protein Pax-8 (Q06710 whole entry, the tested form may be a part): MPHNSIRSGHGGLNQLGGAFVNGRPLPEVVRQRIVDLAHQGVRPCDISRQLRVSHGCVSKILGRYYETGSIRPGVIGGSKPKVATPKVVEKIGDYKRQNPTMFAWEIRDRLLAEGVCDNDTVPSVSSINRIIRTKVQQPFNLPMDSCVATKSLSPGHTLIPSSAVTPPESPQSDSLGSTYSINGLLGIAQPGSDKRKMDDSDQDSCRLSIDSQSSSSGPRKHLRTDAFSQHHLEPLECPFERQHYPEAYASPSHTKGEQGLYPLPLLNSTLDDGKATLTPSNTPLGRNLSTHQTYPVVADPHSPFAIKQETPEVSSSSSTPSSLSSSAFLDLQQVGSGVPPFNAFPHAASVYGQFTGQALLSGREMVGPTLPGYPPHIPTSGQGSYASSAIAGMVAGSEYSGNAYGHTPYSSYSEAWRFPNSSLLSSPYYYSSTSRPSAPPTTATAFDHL

[9] = HIV-1 AD8 envelope cell-cell fusion blockers – cherry-pick, dose response (AID 652062); type: functional, cell-based;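 further: luciferase signal from cell-cell fusion driven by HIV-1 clade B AD8 Env; potency is for inhibitors of fusion seen as a drop in luminescence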
[10] = OVCAR8 cell viability loss – plate reader, dry powder samples, PAX8 project, dose response (AID 743197); type: functional, cell-based; conditions: OVCAR-8
[11] = OVCAR-3 cell viability loss – plate reader, dry powder samples, PAX8 inhibitor project, dose response (AID 743044); type: functional, cell-based

## CN1CCN(C2Cc3ccc(Cl)cc3Sc3ccc(F)cc32)CC1 (stereo not given)
[1]
  EC50: 4.95 µM (active)
Streptokinase A
  EC50: > 150 µM (not active)
Streptococcus
  EC50: 11.9 µM (active)
[2]
  AC50: 14.1 µM (active)

## Fc1ccc(-c2cnc(-c3cccs3)o2)cc1
Protein skinhead-1
  IC50: 24 µM (active)

## COC(=O)CN1C(=S)N(c2ccc(OC)cc2)C(=O)/C1=C/c1ccc(N2CCOCC2)cc1
Protein skinhead-1
  IC50: > 100 µM (inactive)

## Cc1cc(N2CCN(C)CC2)nc2ccc(NC(=S)N3CCCCC3)cc12
[2]
  AC50: 10.9 µM (active)

## Cc1ccsc1C(=O)OCC(=O)Nc1nnc(-c2ccccc2)o1
[3]
  EC50: > 160 µM (inactive)
[4]
  EC50: 3.98 µM (active)
cells
  IC50: 15.1 µM (active)

## CC[N+](CC)(CC)CCCCOc1ccc2c(c1)C(=O)c1cc(OCCCC[N+](CC)(CC)CC)ccc1-2
[5]
  IC50: 221 µM (active)
[2]
  AC50: 0.506 µM (active)

## Fc1cc(Cl)cc2ccc(-c3ccccc3)nc12
Protein skinhead-1
  IC50: 45.2 µM (active)

## Cc1ccc(/C=N/NC(=S)Nc2cccc(S(=O)(=O)N(C)C)c2)o1
Vero
  CC50: > 25 µM (active)
[6]
  IC50: > 47.1 µM (inactive)
[7]
  EC50: > 53 µM (inactive)

## CC(C)CC#Cc1ccc2c(c1)O[C@@H](CN(C)S(=O)(=O)c1ccc(F)cc1)[C@H](C)CN([C@@H](C)CO)S2(=O)=O
[8]
  AC50: 30.8 µM (active)
Paired box protein Pax-8
  AC50: 9.45 µM (active)
[9]
  AC50: 44.9 µM (active)
[10]
  AC50: 61 µM (active)

## Cc1ccc(OC(=O)N(C)C[C@@H]2OCc3ccccc3-c3c(n(C)c4ccccc34)C(=O)N([C@@H](C)CO)C[C@H]2C)cc1
Paired box protein Pax-8
  AC50: 4.78 µM (active)
[11]
  AC50: 39.9 µM (active)
[10]
  AC50: > 70 µM (inactive)

## Cn1ccs/c1=N\C(=O)c1ccc(OC(F)(F)F)cc1
Protein skinhead-1
  IC50: 29.8 µM (active)

## CN/C(=C\[N+](=O)[O-])NCCSCc1ccc(CN(C)C)o1 [RANITIDINE HYDROCHLORIDE]
[2]
  AC50: 11.8 µM (active)
